Experimental data taken from PMC3206815, “An Essential Farnesylated Kinesin in Trypanosoma brucei” (PLoS ONE, 2011).

Target: T1, Kinesin^CaaX (Trypanosoma brucei, UniProt Q388Z9)
T1 construct: gene Tb10.389.1270; truncated N-terminal 340-residue motor domain plus coil (full length 832 residues), N-terminal 6xHis, E. coli BL21 soluble lysate, about 44 kDa
T1 sequence (Q388Z9 1-340): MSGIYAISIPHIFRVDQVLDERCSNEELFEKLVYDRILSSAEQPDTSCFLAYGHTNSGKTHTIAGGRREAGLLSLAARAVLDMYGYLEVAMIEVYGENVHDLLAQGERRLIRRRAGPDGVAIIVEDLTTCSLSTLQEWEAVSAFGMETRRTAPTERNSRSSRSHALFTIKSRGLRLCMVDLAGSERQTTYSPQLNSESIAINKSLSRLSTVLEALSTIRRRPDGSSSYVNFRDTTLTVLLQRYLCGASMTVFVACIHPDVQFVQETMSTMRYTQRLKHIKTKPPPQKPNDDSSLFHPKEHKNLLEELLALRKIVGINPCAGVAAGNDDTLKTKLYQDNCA
Assay: microtubule gliding motility assay
Format: biochemical
Conditions: 1 mM MgATP, BRB80 pH 6.9, taxol-stabilised bovine microtubules; E. coli lysate with recombinant motor domain

Nc1ncnc2c1ncn2[C@@H]1O[C@H](COP(=O)(O)OP(=O)(O)OP(=O)(O)O)[C@@H](O)[C@H]1O [ATP]
microtubule gliding motility assay: both ATP and the Kinesin^CaaX motor domain were required to move microtubules
